US20230381082A1, “PHOTOPROTECTIVE COSMETIC COMPOSITIONS COMPRISING XANTHOMMATIN AS AN ANTIOXIDANT AND UV-FILTER STABILIZER” (SEASPIRE, INC., priority 2020, published 2023)
Values after ≈ are worked out from the molar mass of the structure shown. Values joined by “and” are separate entries in the source; they are usually repeats but may differ in a detail not shown here. Equal values may be shown once. “Also recorded” adds a separate entry of the source. Read-outs that look alike come from different tables or passages of the source.

How the values were obtained:
[1] = Oxygen Radical Antioxidant Capacity (ORAC) assay; details: for AUC: single antioxidant, 40 uM; for antioxidant activity/capacity compared to known standards (Trolox, vitamin C): 90 minutes at 37° C.
Source text: The ORAC assay measures the antioxidant capacity of biomolecules based on the oxidation of a fluorescein probe by peroxyl radicals (Fluorescence decreases as antioxidant capacity decreases).
The antioxidant properties of ammonium xanthommatin (referred to herein as “xanthommatin”) in an unsaturated solution were compared to known standard antioxidants. The results of the experiments are provided in FIGS. 1-3, illustrating the relative fluorescence value (RFU) over time (in seconds) for known antioxidants Trolox (a vitamin E analogue) and ascorbic acid compared to xanthommatin. Experiments were performed using 10, 20, and 40 μM Trolox, ascorbic acid, and ammonium xanthommatin (“Xa”) and compared to performance of 1:1 Trolox:Xa (20 μM: 20 μM and 40 μM: 40 μM) and 1:1 ascorbic acid:Xa (20 μM: 20 μM and 40 μM: 40 μM).
For antioxidant stabilizing/boosting experiments, the antioxidizing capacity and performance of ammonium xanthommatin only and ammonium xanthommatin blended with equimolar ascorbic acid (vitamin C) or Trolox (a vitamin E analogue) over 90 minutes at 37° C. were tested using a standard Oxygen Radical Antioxidant Capacity (ORAC) Assay. The ORAC assay measured the antioxidant capacity of biomolecules based on the oxidation of a fluorescein probe by peroxyl radicals (Fluorescence decreases as antioxidant capacity decreases). The ORAC assay is described in detail at https://www.cellbiolabs.com/sites/default/files/STA-345-orac-assay-kit.pdf, the contents of which are incorporated by reference herein. […] FIG. 19 provides half life measurements of ammonium xanthommatin in solution compared to vitamin C in solution when assayed at the same concentration. […] FIGS. 20 and 21, respectively, show the performance of vitamin C and vitamin E is extended when combined with ammonium xanthommatin.

[2] = UV-boosting properties: UV absorption of chemical UV filters alone and in combination; type: physicochemical; details: for reduction of avobenzone UV-A performance: filter combined with avobenzone
Source text: FIGS. 9-11 show the UV absorption behavior of chemical UV filters octinoxate, avobenzone, and oxybenzone, alone, in combination with avobenzone, and in combination with xanthommatin small molecules in unsaturated solution (0.03 wt %).

[3] = Absorbance of xanthommatin alone and with FDA approved organic UV filters, 280-500 nm; type: physicochemical; details: 0.6 mM in DMSO
Protocol: The performance of ammonium xanthommatin was tested as a broad-spectrum absorber to assess whether the natural optical features of xanthommatin could be used to boost the UV performance of low (<0.2 mM) concentrations of organic UV filters. Xanthommatin's absorbance capabilities were tested alone in solution (FIG. 14) and in combination with FDA approved organic UV filters (FIGS. 15 and 16) over a spectral range of 280-500 nm. We observed a clear relationship between increasing concentrations of xanthommatin and the absorption of UV through visible light (FIG. 14). […] When xanthommatin was combined with the chemical UV filters, a significant increase in both the UVB (300 nm) and UVA (360 nm) range was achieved across all filters tested, where we observed at least a 50% increase in UVA and B performance upon addition with xanthommatin (FIG. 16).

[4] = system: BALB/c 3T3 mouse fibroblast cell lines; experiment: in vitro 3T3 NRU phototoxicity assay; type: cell-based
Protocol: Given the UV filter-boosting features of xanthommatin, we next tested its cytotoxicity with and without exposure to a noncytotoxic dose of UVA light (from 315 to 400 nm and a measuring range between 0-199.9 mW/cm2). In these experiments, cytotoxicity was expressed as a concentration dependent reduction of a neutral red dye uptake within BALB/c 3T3 mouse fibroblast cell lines after treatment both with and without the presence of UVA exposure. […] Instead, the mean photo effect was calculated using Equation 5,
where, the photo effect (PE) at any concentration (C) is defined as the product of the response effect (REC) and the dose effect (DEC) concentrations. MPE values of 0.019, 0.199, and 0.042 were measured for the three independent experiments with xanthommatin. […] In this figure, the grey lines represent data collected in the absence of UVA (−UVA), and the black lines represent data collected with exposure to UVA (+UVA). Data was collected for three independent experiments.
Since the toxicological endpoint of this in vitro 3T3 NRU phototoxicity assay was developed and validated in a joint EU/COLIPA project, this assay is a well-recognized in vitro alternative to the various in vivo tests in use.

[5] = SPF and critical wavelength of xanthommatin in solution; type: physicochemical
Source text: In certain embodiments, the compositions of the present application provide sun protection. In certain embodiments, the compositions provide an SPF of at least about 15, 30, 60, 100, or other suitable amount of protection. In certain embodiments, the amount of phenoxazone and/or phenoxazine compound, a precursor or derivative thereof, or a salt of any of the foregoing (e.g., xanthommatin, a precursor or derivative thereof, or a salt of any one of the foregoing, such as ammonium xanthommatin) in the composition may be altered or adjusted in order to provide a particular SPF. In certain embodiments, the amount of UV-filtering material (e.g., a UV-absorbing compound or a UV-scattering particle) in the composition may be altered or adjusted in order to provide a particular SPF. […]
SPF was calculated using the derived Mansur equation (Sayre, R. M., et al., A comparison of in vivo and in vitro testing of sunscreening formulas. Photochemistry and Photobiology, 1979. 29(3): p. 559-566) according to Equation 1, SPF=CFΣ290^320EE(λ)I(λ)Abs(λ), where EE (λ) represents the erythemal effect spectrum; I(λ) is solar intensity spectrum; Abs(a) absorbance of UV-filter; CF is the correction factor (=10). […] The calculated SPF values were rounded to the nearest whole number. […]

[6] = UV-filter stabilizing properties: UV absorption of chemical UV filters with xanthommatin, day 1 and day 16; type: physicochemical; details: xanthommatin at about 0.01 wt %
Source text: This boost in stability in the presence of unsaturated solutions of xanthommatin was consistent across all chemical filters tested, including homosalate, octisalate, octocrylene, oxybenzone, and octinoxate. Between 10-100% UV filtering retention was observed over the course of weeks. Solutions including unsaturated solutions of one or more phenoxazone and/or phenoxazine compound, a precursor or derivative thereof, or a salt of any of the foregoing (e.g., xanthommatin, a precursor or derivative thereof, or a salt of any one of the foregoing, such as ammonium xanthommatin) may also boost the stability of UV-filters in the presence of solar simulated light, or solar light.
The UV-filter stabilizing properties of unsaturated solutions of xanthommatin were explored by comparing the behavior of UV-filter stabilizers over time to UV-filter stabilizers in combination with xanthommatin. As shown in FIGS. 4-8, the addition of unsaturated solutions of xanthommatin to solutions including oxybenzone (FIGS. 4A and 4B), avobenzone (FIGS. 5A and 5B), octi and homo-salate (FIGS. 6A and 6B), octinoxate (FIGS. 7A and 7B) and octocrylene (FIGS. 8A and 8B) increased the UV absorption between about 240 and about 310 nm on day 1, relative to the chemical UV filters alone. […]

[7] = avobenzone combinations, Xa 0.03 wt %

## Cc1c(C)c2c(c(C)c1O)CCC(C)(C(=O)O)O2 (centres unmarked) [Trolox, reference compound]
[1]
  AUC: 55

## CCCCC(CC)COC(=O)C=Cc1ccc(OC)cc1 (centres unmarked) [octinox control, octinoxate]
[2]
  reduction of avobenzone UV-A performance: ~56%
[2]; octinoxate, Xa 0.03 wt %
  UV absorption 310 nm: 2.53
  UV absorption 360 nm: 0

## NC(CC(=O)c1cccc2oc3cc(=O)c4[nH]c(C(=O)O)cc(=O)c4c-3nc12)C(=O)O (centres unmarked) [xanthommatin, Ammonium xanthommatin]
[3]
  absorption profile compared to pure organic UV filters: broader profile that spanned the UVB through visible light regions
[4]
  phototoxicity classification: not phototoxic; also recorded: neither phototoxic nor a photoirritant
[4]; −UVA
  EC50: no EC50-value could be calculated
[4]; −UVA controls, three independent experiments
  relative cell viability at the highest test item concentration: 88.5% and 99.3% and 100.6%
[2]; xanthommatin at 0.03 wt %
  boost of performance of avobenzone: up to 109%
[2]; xanthommatin at 0.03 wt %, in some cases
  enhancement of UVB absorbing power of octinoxate and oxybenzone: more than 250%
[2]; xanthommatin at about 0.03 wt %
  boost of activity of avobenzone in UV-A (360 nm): about 9%
[2]; xanthommatin at about 0.03 wt %, or second filter
  boost of activity/performance of avobenzone in UV-B (300 nm): ~250%
[5]
  critical wavelength: 385 nm
[6]
  effect on UV absorption and stability of chemical UV filters: enhances the UV absorption properties of the chemical UV filters and stabilizes the chemical UV filters over time
[1]
  antioxidant activity/capacity compared to known standards (Trolox, vitamin C): comparable activity to vitamin c and vitamin e; also recorded: comparable anti-oxidizing capacity to known antioxidant standards
  AUC: 56
[1]; listed as ammonium xanthommatin
  antioxidant activity/capacity compared to known standards (Trolox, vitamin C): comparable antioxidizing capacity to known antioxidant standards
[1]; assayed at the same concentration
  half life in solution compared to vitamin C: two times longer than vitamin C
[1]; compared to antioxidant alone, 10, 20, 40 μM
  relative fluorescence value (RFU) over time: maintain a high RFU value for greater lengths of time
[1]; equimolar blend
  extension of the performance of vitamin C when combined with ammonium xanthommatin: 23%
  extension of the performance of vitamin E when combined with ammonium xanthommatin: 9%

## COc1ccc(C(=O)CC(=O)c2ccc(C(C)(C)C)cc2)cc1 [avo control, avobenzone]
[2]; [7]
  UV absorption 300 nm: 0.31
  UV absorption 360 nm: 1.49

## COc1ccc(C(=O)c2ccccc2)c(O)c1 [Oxy control, oxybenzone]
[2]
  reduction of avobenzone UV-A performance: about 46%
[2]; oxybenzone, Xa 0.03 wt %
  UV absorption 290 nm: 2
  UV absorption 360 nm: 0.31

## O=C1O[C@H]([C@@H](O)CO)C(O)=C1O [AA, ascorbic acid, reference compound]
[1]
  AUC: 55

## CN(C)CCCN1c2ccccc2Sc2ccc(Cl)cc21 [chlorpromazine, reference compound]
[4]; Mus musculus, BALB/c3T3, light or radiation study, +UVA, exp. 1, read-out: EC50
  EC50: 0.221 mg/L (≈ 0.693 µM)
[4]; exp. 1-3
  PIF (photo-irritation-factor = EC50 (−UVA)/EC50(+UVA)): 37.81 and 37.74 and 40.33
